Laboratory results: PubChem BioAssay AID651993 (Sanford-Burnham Center for Chemical Genomics, 2013)
Calls of active or inactive are those of the source.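 The calls were made as follows: active = compounds with mean IC50 at or below 50 µM in this heat-shock counterscreen, flagging likely artifacts; inactive = the rest.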

Test system: C. elegans VP596 Phsp-16.2 GFP/RFP heat-shock reporter
Assay: inhibitors of hsp-16.2 heat-shock response – whole organism, C. elegans VP596, GFP/RFP ratio fluorescence, counter-screen for SKN-1 inhibitor project, SAR follow-up (AID 651993)

Row | Compound | IC50
1 | Clc1ccc(-c2nnc(-c3ccccc3)o2)c(Cl)c1 | > 64 µM (inactive)
2 | O=C(Nc1nc(-c2ccc(Cl)s2)cs1)c1cccs1 | > 64 µM (inactive)
3 | CC(C)c1ccc(C(=O)Nc2ccc(CN3CCOCC3)cc2)cc1 | > 64 µM (inactive)
4 | Cc1ccc(Nc2nc(-c3cccs3)cs2)nc1 | > 64 µM (inactive)
5 | O=C(/C=C/Nc1ccc(F)cc1F)c1ccco1 | > 64 µM (inactive)
6 | O=C(/C=C/Nc1ccccc1F)c1cccs1 | > 64 µM (inactive)
7 | c1ccc(SCc2cc(-c3ccccc3)no2)cc1 | > 64 µM (inactive)
8 | Cc1ccc(CSc2nnc(-c3ccco3)o2)cc1 | > 64 µM (inactive)
9 | Fc1ccc(COc2ccc(-c3nnco3)cc2)cc1 | > 64 µM (inactive)
10 | CCOc1cc(CNC2CCCC2)cc(Cl)c1OCc1ccc(F)cc1 | > 64 µM (inactive)
11 | Clc1ccccc1-c1nnc(-c2ccccc2Cl)o1 | > 64 µM (inactive)
12 | O=C(Nc1nc(-c2ccccc2)cs1)c1cccs1 | > 64 µM (inactive)
13 | CSc1cccc(NC(=O)c2cccc3cccnc23)c1 | > 64 µM (inactive)
14 | O=C(/C=C/c1ccc(Br)cc1)c1ccc(NC2=NCCCS2)cc1 | > 64 µM (inactive)
15 | c1ccc(-c2csc(Nc3ccccn3)n2)cc1 | > 64 µM (inactive)
16 | Clc1ccccc1-c1nc(-c2ccncc2)no1 | > 64 µM (inactive)
17 | O=C(/C=C/Nc1ccc(Br)cc1F)c1ccco1 | > 64 µM (inactive)
18 | O=C(Nc1nc(-c2ccc(Cl)s2)cs1)c1ccccc1 | > 64 µM (inactive)
19 | O=C(Nc1nccs1)c1ccc2ccccc2n1 | > 64 µM (inactive)
20 | CCOc1ccc(-c2nc(-c3cccnc3)no2)cc1 | > 64 µM (inactive)

Row | Compound | IC50
21 | Brc1ccc(CSc2nnc(-c3cccnc3)o2)cc1 | > 64 µM (inactive)
22 | O=C(Nc1ccc(CN2CCOCC2)cc1)c1cc2ccccc2o1 | > 64 µM (inactive)
23 | Cc1ccc2nc(-c3ccc(NC(=S)NC4CC(C)(C)NC(C)(C)C4)cc3)sc2c1 | > 64 µM (inactive)
24 | CCOC(=O)c1c(-c2ccc(-c3ccccc3)cc2)csc1NC(=O)CNCCN(C)C | > 64 µM (inactive)
25 | COc1cc(CNC2CCCC2)cc(Cl)c1OCc1ccc(F)cc1 | > 64 µM (inactive)
26 | c1ccc2sc(SCc3ccc(-c4nnco4)cc3)nc2c1 | > 64 µM (inactive)
27 | Brc1ccc(-c2nnc(-c3ccco3)o2)cc1 | > 64 µM (inactive)
28 | Brc1ccc(CSc2nnc(-c3ccco3)o2)cc1 | > 64 µM (inactive)
29 | O=C(/C=C/Nc1ccc(F)c(Cl)c1)c1ccco1 | > 64 µM (inactive)
30 | Cc1ccccc1-c1noc(-c2cccs2)n1 | > 64 µM (inactive)
31 | Clc1ccc(Nc2nc(-c3cccs3)cs2)nc1 | > 64 µM (inactive)
32 | Fc1ccc(-c2csc(Nc3ccccn3)n2)cc1 | > 64 µM (inactive)
33 | Cc1cc(OCc2cccc(Cl)c2)c(C)cc1CN1CCOCC1 | > 64 µM (inactive)
34 | Cc1ccc(-c2noc(-c3cccs3)n2)cc1 | > 64 µM (inactive)
35 | Fc1ccc(-c2csc(-c3ccncc3)n2)cc1 | > 64 µM (inactive)
36 | Brc1ccc(-c2nc(-c3ccccc3)no2)o1 | > 64 µM (inactive)
37 | CCOc1cc(CNCCSc2nnnn2C)cc(Br)c1OCc1ccc(F)cc1 | > 64 µM (inactive)
38 | O=C(/C=C/Nc1ccc(F)c(F)c1)c1cccs1 | > 64 µM (inactive)
39 | O=C(/C=C/c1ccccc1)Nc1ccc(CN2CCOCC2)cc1 | > 64 µM (inactive)
40 | CCc1ccc(-c2nc(-c3ccncc3)no2)cc1 | > 64 µM (inactive)

Row | Compound | IC50
41 | CCOC(=O)Nc1nc(-c2ccc(F)cc2F)cs1 | > 64 µM (inactive)
42 | COc1ccc(C(=O)Nc2nc(-c3cccs3)cs2)cc1 | > 64 µM (inactive)
43 | O=C(Nc1nc(-c2ccc(Cl)s2)cs1)c1ccco1 | > 64 µM (inactive)
44 | COc1cc(CNC(C)(C)CO)cc(Br)c1OCc1ccc(Cl)cc1 | > 64 µM (inactive)
45 | Cc1ccc(N=C/C(C(=O)C(F)(F)F)=C(\O)c2ccco2)cc1Cl | > 64 µM (inactive)
46 | Cc1oc(-c2ccc(-c3ccccc3)cc2)nc1CN(C)C1CCOC1 (stereo not drawn) | > 64 µM (inactive)
47 | O=C(Nc1nc2c(ccc3ccccc32)s1)c1ccco1 | > 64 µM (inactive)
48 | CCOc1cc(CNC2CCCC2)cc(Cl)c1OCc1ccccc1 | > 64 µM (inactive)
49 | Clc1ccc(-c2nnc(-c3ccco3)o2)cc1 | > 64 µM (inactive)
50 | COc1cc(CNC(C)c2ccccc2)cc(Br)c1OCc1ccc(F)cc1 (stereo not drawn) | > 64 µM (inactive)
51 | c1ccc(-c2nc(-c3ccncc3)no2)cc1 | > 64 µM (inactive)
52 | Fc1ccc(COc2ccc(-c3nnco3)cc2)c(Cl)c1 | > 64 µM (inactive)
53 | c1ccc(Nc2nc(-c3cccs3)cs2)nc1 | > 64 µM (inactive)
54 | c1ccc2oc(SCc3nc4ccccc4s3)nc2c1 | > 64 µM (inactive)
55 | O=C(/C=C/c1cccs1)c1ccc(Br)cc1 | > 64 µM (inactive)
56 | Cc1nc2ccccc2cc1OCc1ccc(F)cc1 | 9.02 µM
57 | O=C(/C=C/Nc1ccc(F)cc1F)c1cccs1 | > 64 µM (inactive)
58 | c1ccc(-c2csc(-c3ccncc3)n2)cc1 | > 64 µM (inactive)
